For assay [1], the system named is BV-2. Briefly: Inhibition of COX2 mRNA expression in LPS-stimulated mouse BV2 cells at 20 uM after 4 hrs by RT-PCR. The assay is classed as functional, cell-based.
For assay [2], the system named is BV-2. Put plainly: Inhibition of iNOS mRNA expression in LPS-stimulated mouse BV2 cells at 20 uM after 4 hrs by RT-PCR. Format: functional, cell-based.
The test system of assay [3] is BV-2. Put plainly: Inhibition of COX2 expression in LPS-stimulated mouse BV2 cells after 20 hrs by Western blot analysis. The assay is classed as functional, cell-based.
Assay [4] deals with BV-2. Put plainly: Inhibition of iNOS expression in LPS-stimulated mouse BV2 cells at 20 uM after 20 hrs by Western blot analysis. Format: functional, cell-based.
Assay [5] has as its system BV-2. Briefly: Inhibition of NO production in LPS-activated mouse BV2 cells by […]. Format: functional, cell-based. In general terms: An ELISA detects its analyte on a solid surface through an enzyme-linked reagent.
For assay [6], the system named is BV-2. Briefly: Inhibition of IkappaB alpha degradation in LPS-induced mouse BV2 cells at 20 uM after 30 mins by Western blot analysis. The assay is classed as functional, cell-based. For orientation: In western blotting, separated proteins are transferred to a membrane and probed.
The subject of assay [7] is BV-2. Put plainly: Inhibition of NF-kappaB activity in LPS-stimulated mouse BV2 cells at 10 uM after 1 hr by luciferase reporter gene assay. The assay is classed as cell-based. A general note: Reporter assays use an easily measured gene product as a stand-in for the process of interest.

The results in this text go back to ChEMBL document CHEMBL1143228, “Inhibition of lipopolysaccharide-induced inducible nitric oxide synthase and cyclooxygenase-2 expression by xanthanolides isolated from Xanthium strumarium” (Bioorg Med Chem Lett, 2008).

Molecules are shown by their SMILES. Calls of active or inactive are those of the source. The rule behind the calls is not given here.

By IC50 is commonly meant the concentration that inhibits the measured activity by half. Lower therefore signals inhibition by little substance. As to `C=C1C(=O)O[C@H]2C[C@H](C)C(/C=C/C(C)=O)=CC[C@H]12`, the outcome in the assay with BV-2 [1], with BV-2 [2], with BV-2 [3], with BV-2 [4], with BV-2 [6] and with BV-2 [7] was Active. The IC50 in the assay with BV-2 [5] stood at 0.47 µM.
Take `C=C1C(=O)O[C@H]2C[C@H](C)C(CCC(C)=O)=CC[C@H]12`: the result with BV-2 [1], in the assay with BV-2 [2], in the assay with BV-2 [3], in the assay with BV-2 [4] and with BV-2 [6] was Active. For the same compound, in the assay on BV-2 [5], the IC50 turned out to be 11.2 µM.
In the assay with BV-2 [5], `C=C(C(=O)O)[C@H]1CC=C(/C=C/C(C)=O)[C@@H](C)CC1` gave an IC50 of 136 µM.
